Results as given in publication PMC6325233, “A Novel Actin Binding Drug with In Vivo Efficacy” (Antimicrobial Agents and Chemotherapy, 2018).
Where two headings read alike, the source gives them in different places.

Columns and labels:
[1] = system: Trichophyton rubrum 11199; test: MIC susceptibility testing (terbinafine-resistant strain); assay type: cell-based; conditions: CLSI M38-A2; 96 hours
Description: Occidiofungin was purified from a liquid culture of Burkholderia contaminans MS14 as previously described ([21]). MIC susceptibility testing was performed according to the CLSI M27-A3 and M38-A2 standards for the susceptibility testing of yeasts and filamentous fungi, respectively. S. cerevisiae deletion mutants were obtained from the commercially available BY4741 deletion library (Thermo Scientific).

C. albicans (ATCC 66027) = test: DNA (nuclear) segregation assay, DAPI; assay type: cell-based; conditions: for percentage of cells in category, column 2: untreated 10.3 ± 3.8; for percentage of cells in category, column 4: untreated 1.0 ± 0.4; for percentage of cells in category, column 3: untreated 26.6 ± 5.6
Description: The hyphal induction assay was performed as previously reported with minor modifications ([58]). Candida albicans strain ATCC 66027 was grown in yeast extract-peptone-dextrose (YPD) medium at 30°C for 48 h to reach saturation with an OD600 of 17 to 19. Cells were diluted into fresh Spider medium (1% nutrient broth, 1% mannitol, 0.2% K2HPO4) to obtain an OD600 of 0.05 (∼0.5 × 10^6 to 1 × 10^6 cells/ml) and incubated at 37°C with shaking to induce hyphal formation. Immediately prior to the 37°C incubation, occidiofungin (1 µg/ml; 0.5× MIC) or an equal volume of DMSO was added to the cultures. Aliquots were removed at 0-, 1-, 2-, 4-, and 6-h time points and fixed in 3.7% formaldehyde for later analysis of cell morphology by light microscopy. More than 200 cells were examined for each time point, and cells were scored as having either a yeast or filamentous form, with cells showing any outgrowth considered filamentous. DNA segregation assays were performed using a mid-log culture of S. cerevisiae (BY4743, diploid) and C. albicans (ATCC 66027). The cultures were diluted in fresh YPD medium to obtain OD600s of 0.095 (∼1 × 10^6 to 1.5 × 10^6 cells/ml) and 0.05 (0.5 × 10^6 to 0.8 × 10^6 cells/ml), respectively. A blank vehicle control (DMSO) or occidiofungin (1 µg/ml; 0.5× MIC) was added, and the cultures were placed at 30°C with shaking. Samples were removed at 0.5, 1, and 2 h, and the cells fixed by adding formaldehyde (3.7%). The cells were washed in phosphate-buffered saline (PBS) and permeabilized by adding an equivalent volume of PBS containing 0.2% Triton X-100 for 30 min at room temperature. The cells were washed thrice in PBS, added to concanavalin A-treated glass slides, and overlaid with Vectashield plus DAPI (4′,6-diamidino-2-phenylindole). Images were viewed using a Nikon 50i fluorescence microscope with a 100× oil immersion objective and DAPI filter. Cells were scored on the basis of bud morphology and DNA location. One-way analyses of variance (ANOVAs) with post hoc Tukey’s honestly significant difference (HSD) testing were used to determine statistically significant differences in the distributions between treated and untreated cells. In addition, FM-464 uptake assays were used to observe endocytosis. Three 1-ml aliquots of S. pombe (OD600 of 0.6 to 0.8) were treated with 1 μl DMSO, 0.5 μg/ml (0.5× MIC), or 1 μg/ml (1× MIC) of native occidiofungin for 30 min at 30°C. The cells were washed thrice with PBS and resuspended in YPD medium containing […] FM-464 (Thermo Fisher Scientific). The cells were incubated for 60 min at 30°C, followed by two washes in PBS before visualizing on an Olympus FV1000 confocal microscope with a 40×/0.9 dry objective. Lastly, actin polymerization and depolymerization assays were performed using the Actin polymerization biochem kit (catalog number BK003; Cytoskeleton, Inc.) according to the manufacturer’s instructions.

[2] = target: T1, rabbit skeletal muscle F-actin (Oryctolagus cuniculus, UniProt P68135); test: Cosedimentation assay; assay type: binding; conditions: F-actin 200 nM, Langmuir fit
T1 construct: Purified rabbit skeletal muscle filamentous actin (catalog number AKF99); purchased Cytoskeleton, Inc. AKF99; host or cells: rabbit skeletal muscle (tissue-purified)
Description: Purified rabbit skeletal muscle filamentous actin (catalog number AKF99) and G-actin (catalog number AKL95) were purchased from Cytoskeleton, Inc. Actin was reconstituted in Milli-Q water to achieve a stock concentration of 0.4 mg/ml in a buffer that consisted of 5 mM Tris-HCl (pH 8.0), 0.2 mM CaCl2, 0.2 mM ATP, 2 mM MgCl2, and 5% (wt/vol) sucrose as directed by the supplier. This solution was stored at −80°C in 50-μl aliquots until use. Immediately before use, each aliquot was thawed by placing it in a 37°C water bath for 5 min and then at room temperature. For all studies, 24 μg of F- or G-actin was used with 8 μg alkyne-OF. F-actin filaments were reacted with native occidiofungin for 15 min at room temperature at molar ratios of 1:10 (24 μg actin to 8 μg native occidiofungin) and 1:5 (24 μg actin to 4 μg native occidiofungin). As per the manufacturer’s instructions, Acti-stain 670 phalloidin (Cytoskeleton, Inc.) was used as a control in an in vitro actin filament binding study. Actin filaments treated with DMSO (solvent blank negative control) were stained and observed for comparison. […]
The reaction buffer for F-actin (200 nM) and occidiofungin in the cosedimentation study consisted of 5 mM Tris-HCl (pH 8.0), 0.2 mM ATP, and 2 mM MgCl2. […] A TSQ Quantum access triple quadrupole mass spectrometer was used to quantify the amount of occidiofungin within each sample. […]

[3] = 0.5X MIC, 0.5 h, 30 °C, two experiments
[4] = 0.5X MIC, 1 h, 30 °C, two experiments, * p < 0.05

**Q.** occidiofungin was tested. Which “MIC, 80% inhibition” value [1] did it give?
**A.** 1 µg/mL

**Q.** And the “MIC, 100% inhibition” value [1]?
**A.** 2 µg/mL

**Q.** And the “percentage of cells in category, column 1” value (“percentage … column 1” below) (C. albicans (ATCC 66027))?
**A.** 58.1 ± 6.6%

**Q.** What about the “percentage of cells in category, column 2” value (“percentage … column 2” for short) (C. albicans (ATCC 66027); 0.5X MIC, 0.5 h, 30 °C, two experiments, * p < 0.05) of the same substance?
**A.** 1 ± 0.7%

**Q.** And the “percentage of cells in category, column 4” value (from here on “percentage … column 4”) (C. albicans (ATCC 66027); [3])?
**A.** 5.6 ± 0.4%

**Q.** What about the “percentage of cells in category, column 3” value (from here on “percentage … column 3”) (C. albicans (ATCC 66027); [3]) of the same substance?
**A.** 35.3 ± 6.8%

**Q.** And the “percentage … column 4” value (C. albicans (ATCC 66027); [4])?
**A.** 8.1 ± 2.8%

**Q.** What about the “percentage … column 2” value (C. albicans (ATCC 66027); [4]) of the same substance?
**A.** 0.9 ± 0.1%

**Q.** What about the “percentage … column 3” value (C. albicans (ATCC 66027); 0.5X MIC, 1 h, 30 °C, two experiments) of the same substance?
**A.** 28.1 ± 1.3%

**Q.** And the “percentage … column 1” value (C. albicans (ATCC 66027); 0.5X MIC, 1 h, 30 °C, two experiments, untreated 62.1 ± 8.8)?
**A.** 62.9 ± 4.2%

**Q.** What about the “percentage … column 2” value (C. albicans (ATCC 66027); 0.5X MIC, 2 h, 30 °C, two experiments, * p < 0.05) of the same substance?
**A.** 0.4 ± 0.6%

**Q.** What about the “percentage … column 4” value (C. albicans (ATCC 66027); 0.5X MIC, 2 h, 30 °C, two experiments, ** p < 0.01) of the same substance?
**A.** 11.4 ± 3.8%

**Q.** What about the “percentage … column 3” value (C. albicans (ATCC 66027); 0.5X MIC, 2 h, 30 °C, two experiments) of the same substance?
**A.** 26.3 ±12.1%

**Q.** And the “percentage … column 1” value (C. albicans (ATCC 66027); 0.5X MIC, 2 h, 30 °C, two experiments, untreated 62.1 ± 8.8)?
**A.** 61.9 ± 7.7%

**Q.** What about the binucleated cells (C. albicans (ATCC 66027); subinhibitory concentration, within 30 min) of the same substance?
**A.** more binucleated cells

**Q.** What about the “saturation of binding, stoichiometry ligand : actin monomer” value [2] of the same substance?
**A.** 24

**Q.** What about the Kd ([2]; occidiofungin 25 to 25,600 nM, pH 8.0, room temperature, 30 min, LC-MS quantification, read-out: estimated macroscopic dissociation constant (Kd)) of the same substance?
**A.** 1000 nM
